# Results reported in patent publication US20060014733A1, “Histamine-3 agonists and antagonists” (Pfizer Inc, priority 2004, published 2006).
# Molecular target: T1, rat histamine H3 receptors (Rattus norvegicus, UniProt Q9QYN8)
# T1 construct: Frozen rat frontal brain or frozen human post-mortem frontal brain is homogenized; from tissue; host or cells: rat frontal brain membranes
# Assay: Rat H3 binding (3H-N-methylhistamine displacement, rat frontal brain membranes)
# Details: radioligand 1 nM 3H-N-methylhistamine, 1 hour incubation
# Procedure: The in vitro affinity of the compounds in the present invention at the rat or human histamine H3 receptors can be determined according to the following procedure. Frozen rat frontal brain or frozen human post-mortem frontal brain is homogenized in 20 volumes of cold 50 mM Tris HCl containing 2 mM MgCl2 (pH to 7.4 at 4 degrees C.). The homogenate is then centrifuged at 45,000 G for 10 minutes. The supernatant is decanted and the membrane pellet re-suspended by Polytron in cold 50 mM Tris HCl containing 2 mM MgCl2 (pH to 7.4 at 4 degrees C.) and centrifuged again. The final pellet is re-suspended in 50 mM Tris HCl containing 2 mM MgCl2 (pH to 7.4 at 25 degrees C.) at a concentration of 12 mg/mL. Dilutions of compounds are made in 10% DMSO/50 mM Tris buffer (pH 7.4) (at 10×final concentration, so that the final DMSO concentration is 1%). Incubations are initiated by the addition of membranes (200 microliters) to 96 well V-bottom polypropylene plates containing 25 microliters of drug dilutions and 25 microliters of radioligand (1 nM final concentration ^3H-N-methylhistamine). After a 1 hour incubation, assay samples are rapidly filtered through Whatman GF/B filters and rinsed with ice-cold 50 mM Tris buffer (pH 7.4) using a Skatron cell harvester. Radioactivity is quantified using a BetaPlate scintillation counter.
# T1 sequence (Q9QYN8 whole entry): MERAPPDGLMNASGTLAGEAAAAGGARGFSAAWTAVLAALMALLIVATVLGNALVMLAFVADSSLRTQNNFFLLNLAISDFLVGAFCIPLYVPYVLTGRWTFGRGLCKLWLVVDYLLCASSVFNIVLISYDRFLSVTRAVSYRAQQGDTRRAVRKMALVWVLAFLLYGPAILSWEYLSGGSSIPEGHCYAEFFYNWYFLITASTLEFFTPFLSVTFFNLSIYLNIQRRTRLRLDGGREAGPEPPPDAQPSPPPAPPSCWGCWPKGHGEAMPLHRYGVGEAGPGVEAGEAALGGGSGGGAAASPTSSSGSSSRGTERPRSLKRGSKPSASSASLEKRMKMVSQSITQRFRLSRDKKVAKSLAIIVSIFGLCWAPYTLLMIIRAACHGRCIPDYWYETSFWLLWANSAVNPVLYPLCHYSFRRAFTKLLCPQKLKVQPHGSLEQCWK
row,SMILES,Ki [nM]
1,"CC(=O)Nc1cccc(-c2ccc(CN3CC[C@H](N(C)C)C3)cc2)c1 [Example 44, (S)-N-[4′-(3-Dimethylamino-pyrrolidin-1-ylmethyl)-biphenyl-3-yl]-acetamide]",139
2,"CN(C)[C@@H]1CCN(Cc2ccc(C3CCNCC3)cc2)C1 [Example 46, (R)-[1-(4-piperidin-4-ylbenzyl)-pyrrolidin-3-yl]-dimethylamine]",136
3,"CC(=O)Nc1cccc(-c2ccc(CN3CC[C@@H](N(C)C)C3)cc2)c1 [Example 45, (R)-N-[4′-(3-Dimethylamino-pyrrolidin-1-ylmethyl)-biphenyl-3-yl]-acetamide]",75
4,CN(C)[C@H]1CCN(Cc2ccc(C3CCNCC3)cc2)C1 [Example 47],33
5,"CN(C)[C@H]1CCN(Cc2ccc(-c3ccc(S(C)(=O)=O)cc3)cc2)C1 [Example 42, (S)-[1-(4′-Methanesulfonyl-biphenyl-4-ylmethyl)-pyrrolidin-3-yl]-dimethylamine]",55
6,"CN(C)[C@@H]1CCN(Cc2ccc(-c3ccc(S(C)(=O)=O)cc3)cc2)C1 [Example 43, (R)-[1-(4′-Methanesulfonyl-biphenyl-4-ylmethyl)-pyrrolidin-3-yl]-dimethylamine]",72
